Patent US11208412B2 (DAEGU-GYEONGBUK MEDICAL INNOVATION FOUNDATION, priority 2017, dated 2021)

Assays:
Assay in all cases: Kinase selectivity, DiscoverX scanMAX Kinase assay panel (% control)
Assay type in all cases: binding
[1] = target: T1, kinases of the scanMAX Kinase assay panel (Homo sapiens, UniProt Q9NRM7); details: LATS2; 1 uM
T1 construct: purchased DiscoverX Co. (contract measurement) scanMAX Kinase assay panel
T1 sequence (Q9NRM7 1-1088): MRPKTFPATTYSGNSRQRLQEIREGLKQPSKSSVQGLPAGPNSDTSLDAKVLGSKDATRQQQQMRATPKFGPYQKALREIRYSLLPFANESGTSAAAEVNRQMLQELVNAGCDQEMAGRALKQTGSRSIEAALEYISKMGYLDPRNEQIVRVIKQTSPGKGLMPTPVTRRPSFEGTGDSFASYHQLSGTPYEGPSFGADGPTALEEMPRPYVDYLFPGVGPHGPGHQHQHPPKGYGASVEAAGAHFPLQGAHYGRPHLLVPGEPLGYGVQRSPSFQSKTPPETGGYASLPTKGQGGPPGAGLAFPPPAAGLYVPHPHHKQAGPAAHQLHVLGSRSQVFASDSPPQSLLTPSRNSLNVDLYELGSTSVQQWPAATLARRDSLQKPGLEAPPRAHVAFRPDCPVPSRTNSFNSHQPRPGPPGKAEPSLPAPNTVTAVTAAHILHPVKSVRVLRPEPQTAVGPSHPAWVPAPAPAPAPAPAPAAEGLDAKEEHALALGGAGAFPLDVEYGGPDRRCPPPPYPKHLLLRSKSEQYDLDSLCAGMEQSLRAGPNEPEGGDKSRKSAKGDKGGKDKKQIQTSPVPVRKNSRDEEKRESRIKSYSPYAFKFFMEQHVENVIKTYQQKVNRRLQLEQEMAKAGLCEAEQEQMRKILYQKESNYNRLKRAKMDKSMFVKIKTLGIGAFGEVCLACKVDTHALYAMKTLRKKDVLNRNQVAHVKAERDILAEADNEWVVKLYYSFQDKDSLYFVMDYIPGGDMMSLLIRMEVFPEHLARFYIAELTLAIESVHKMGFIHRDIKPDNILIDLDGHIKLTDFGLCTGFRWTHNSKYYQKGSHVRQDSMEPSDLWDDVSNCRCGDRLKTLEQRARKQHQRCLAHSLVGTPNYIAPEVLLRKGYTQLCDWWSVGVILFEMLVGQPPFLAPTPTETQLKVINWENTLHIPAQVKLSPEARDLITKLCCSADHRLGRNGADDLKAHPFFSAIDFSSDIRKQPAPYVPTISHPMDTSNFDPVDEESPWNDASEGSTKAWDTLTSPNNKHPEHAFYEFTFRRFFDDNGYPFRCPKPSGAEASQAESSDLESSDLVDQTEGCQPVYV
Procedure, shortened: (§1)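 Compounds tested at 1 uM against the scanMAX kinase panel. Signal expressed as % control = (compound − positive control)/(DMSO negative control − positive control) × 100, where positive control = 0% and DMSO = 100%; below 35% counted as activity on that kinase.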

[2] = target: T2, kinases of the scanMAX Kinase assay panel (Homo sapiens, UniProt P00519, T315I); details: 1 uM
T2 construct: purchased DiscoverX Co. (contract measurement) scanMAX Kinase assay panel
Procedure, shortened: as §1

[3] = target: T3, kinases of the scanMAX Kinase assay panel (Homo sapiens, UniProt P10721, D816H); details: KIT(D816H); 1 uM
T3 construct: purchased DiscoverX Co. (contract measurement) scanMAX Kinase assay panel
T3 sequence (P10721 26-976 D816H): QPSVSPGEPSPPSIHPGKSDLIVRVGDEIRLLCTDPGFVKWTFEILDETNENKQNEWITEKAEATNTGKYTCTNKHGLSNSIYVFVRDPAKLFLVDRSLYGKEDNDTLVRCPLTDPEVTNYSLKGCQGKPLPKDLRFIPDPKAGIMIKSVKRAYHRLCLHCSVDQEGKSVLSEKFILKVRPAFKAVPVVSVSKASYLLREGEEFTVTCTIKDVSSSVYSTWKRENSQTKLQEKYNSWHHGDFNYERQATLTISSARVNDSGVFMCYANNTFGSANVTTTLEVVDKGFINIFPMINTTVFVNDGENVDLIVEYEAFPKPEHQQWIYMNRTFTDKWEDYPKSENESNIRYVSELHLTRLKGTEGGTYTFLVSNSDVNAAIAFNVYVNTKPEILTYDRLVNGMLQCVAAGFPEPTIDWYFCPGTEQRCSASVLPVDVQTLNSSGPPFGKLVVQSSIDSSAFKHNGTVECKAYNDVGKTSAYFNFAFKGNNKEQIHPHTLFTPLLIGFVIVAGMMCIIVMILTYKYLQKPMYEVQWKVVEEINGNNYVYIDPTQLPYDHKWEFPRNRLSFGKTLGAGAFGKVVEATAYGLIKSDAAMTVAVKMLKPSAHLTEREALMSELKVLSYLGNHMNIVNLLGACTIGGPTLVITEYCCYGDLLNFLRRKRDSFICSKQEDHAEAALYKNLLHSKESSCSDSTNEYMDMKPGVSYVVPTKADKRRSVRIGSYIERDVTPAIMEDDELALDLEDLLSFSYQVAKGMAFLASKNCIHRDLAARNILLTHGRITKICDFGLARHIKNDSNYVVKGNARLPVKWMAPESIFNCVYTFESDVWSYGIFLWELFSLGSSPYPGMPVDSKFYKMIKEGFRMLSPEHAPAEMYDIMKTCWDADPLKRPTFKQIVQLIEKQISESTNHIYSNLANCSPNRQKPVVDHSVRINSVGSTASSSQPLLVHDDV
Procedure, shortened: as §1

[4] = target: T4, kinases of the scanMAX Kinase assay panel (Homo sapiens, UniProt Q14004); details: CDC2L5; 1 uM
T4 construct: purchased DiscoverX Co. (contract measurement) scanMAX Kinase assay panel
T4 sequence (Q14004 whole entry): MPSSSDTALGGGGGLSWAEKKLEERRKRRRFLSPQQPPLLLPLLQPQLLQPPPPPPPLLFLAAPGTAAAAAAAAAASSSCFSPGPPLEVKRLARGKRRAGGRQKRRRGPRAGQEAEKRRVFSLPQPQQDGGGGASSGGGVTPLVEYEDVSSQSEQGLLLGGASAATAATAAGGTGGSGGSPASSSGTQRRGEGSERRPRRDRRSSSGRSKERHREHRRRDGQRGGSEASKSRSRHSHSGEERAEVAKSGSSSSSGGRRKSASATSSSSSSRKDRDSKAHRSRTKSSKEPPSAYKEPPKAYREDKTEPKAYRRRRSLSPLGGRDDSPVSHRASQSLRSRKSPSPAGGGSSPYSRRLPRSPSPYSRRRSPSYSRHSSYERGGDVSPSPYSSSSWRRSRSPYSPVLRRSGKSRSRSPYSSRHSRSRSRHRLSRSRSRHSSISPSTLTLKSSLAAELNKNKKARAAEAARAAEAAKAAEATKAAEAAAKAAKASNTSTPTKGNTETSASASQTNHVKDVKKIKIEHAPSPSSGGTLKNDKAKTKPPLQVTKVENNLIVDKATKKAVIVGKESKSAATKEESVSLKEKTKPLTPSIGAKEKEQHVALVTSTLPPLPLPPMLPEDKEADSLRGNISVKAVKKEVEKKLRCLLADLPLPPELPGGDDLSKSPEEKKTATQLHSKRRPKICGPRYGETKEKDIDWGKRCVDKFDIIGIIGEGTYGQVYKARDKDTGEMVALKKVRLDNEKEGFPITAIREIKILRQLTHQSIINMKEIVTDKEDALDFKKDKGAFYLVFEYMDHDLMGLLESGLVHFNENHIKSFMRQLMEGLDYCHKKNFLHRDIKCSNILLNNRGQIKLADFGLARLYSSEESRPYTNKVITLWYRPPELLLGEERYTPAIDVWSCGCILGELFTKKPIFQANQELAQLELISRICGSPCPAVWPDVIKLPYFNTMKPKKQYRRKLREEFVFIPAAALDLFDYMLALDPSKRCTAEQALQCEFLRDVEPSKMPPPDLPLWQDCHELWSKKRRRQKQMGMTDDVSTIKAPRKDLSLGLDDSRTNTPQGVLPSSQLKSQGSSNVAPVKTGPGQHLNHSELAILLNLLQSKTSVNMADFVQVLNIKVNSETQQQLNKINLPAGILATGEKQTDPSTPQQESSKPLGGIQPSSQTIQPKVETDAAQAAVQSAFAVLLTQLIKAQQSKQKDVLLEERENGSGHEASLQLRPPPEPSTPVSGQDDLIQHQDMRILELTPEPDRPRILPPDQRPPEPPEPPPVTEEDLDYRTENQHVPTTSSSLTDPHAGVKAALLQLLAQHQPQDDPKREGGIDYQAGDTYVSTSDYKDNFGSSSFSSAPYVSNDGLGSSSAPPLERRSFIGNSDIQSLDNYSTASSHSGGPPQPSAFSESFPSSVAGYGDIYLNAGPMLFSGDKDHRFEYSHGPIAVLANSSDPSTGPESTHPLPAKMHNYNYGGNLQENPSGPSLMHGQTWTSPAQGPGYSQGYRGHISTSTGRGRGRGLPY
Procedure, shortened: as §1

[5] = target: T5, kinases of the scanMAX Kinase assay panel (Homo sapiens, UniProt P80192); details: MLK1; 1 uM
T5 construct: purchased DiscoverX Co. (contract measurement) scanMAX Kinase assay panel
T5 sequence (P80192 whole entry): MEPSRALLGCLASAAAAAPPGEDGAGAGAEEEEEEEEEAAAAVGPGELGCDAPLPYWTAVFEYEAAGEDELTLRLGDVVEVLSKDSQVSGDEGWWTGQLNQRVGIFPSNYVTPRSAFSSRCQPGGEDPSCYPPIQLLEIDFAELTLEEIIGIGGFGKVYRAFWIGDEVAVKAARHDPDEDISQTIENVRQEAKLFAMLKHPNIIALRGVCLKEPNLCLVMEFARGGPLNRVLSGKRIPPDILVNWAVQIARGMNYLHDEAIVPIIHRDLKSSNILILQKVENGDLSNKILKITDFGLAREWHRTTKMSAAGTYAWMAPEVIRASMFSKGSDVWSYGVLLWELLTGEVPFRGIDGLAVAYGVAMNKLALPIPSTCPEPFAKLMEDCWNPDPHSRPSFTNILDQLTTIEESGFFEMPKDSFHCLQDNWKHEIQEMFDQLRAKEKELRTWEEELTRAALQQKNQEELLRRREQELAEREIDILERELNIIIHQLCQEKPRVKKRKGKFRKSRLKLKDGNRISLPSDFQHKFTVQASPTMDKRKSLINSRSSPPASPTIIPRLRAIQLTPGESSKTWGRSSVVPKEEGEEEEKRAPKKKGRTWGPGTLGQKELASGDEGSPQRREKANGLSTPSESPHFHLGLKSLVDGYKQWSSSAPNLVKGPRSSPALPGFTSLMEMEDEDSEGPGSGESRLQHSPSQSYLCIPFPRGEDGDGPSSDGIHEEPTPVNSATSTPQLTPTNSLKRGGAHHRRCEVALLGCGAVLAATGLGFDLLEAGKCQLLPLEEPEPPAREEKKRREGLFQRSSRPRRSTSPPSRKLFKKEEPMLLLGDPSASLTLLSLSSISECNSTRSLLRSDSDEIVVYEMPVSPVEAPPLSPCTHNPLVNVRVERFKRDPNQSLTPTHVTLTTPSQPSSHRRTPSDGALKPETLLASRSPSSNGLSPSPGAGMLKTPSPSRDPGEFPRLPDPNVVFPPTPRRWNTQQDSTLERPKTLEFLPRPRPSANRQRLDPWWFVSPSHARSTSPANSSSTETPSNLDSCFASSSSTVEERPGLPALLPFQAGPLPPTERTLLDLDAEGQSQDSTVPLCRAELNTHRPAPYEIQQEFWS
Procedure, shortened: as §1

[6] = target: T6, kinases of the scanMAX Kinase assay panel (Homo sapiens, UniProt O75385); details: kinase ULK1; 1 uM in DMSO
T6 construct: purchased DiscoverX Co. (contract measurement) scanMAX Kinase assay panel
T6 sequence (O75385 1-1050): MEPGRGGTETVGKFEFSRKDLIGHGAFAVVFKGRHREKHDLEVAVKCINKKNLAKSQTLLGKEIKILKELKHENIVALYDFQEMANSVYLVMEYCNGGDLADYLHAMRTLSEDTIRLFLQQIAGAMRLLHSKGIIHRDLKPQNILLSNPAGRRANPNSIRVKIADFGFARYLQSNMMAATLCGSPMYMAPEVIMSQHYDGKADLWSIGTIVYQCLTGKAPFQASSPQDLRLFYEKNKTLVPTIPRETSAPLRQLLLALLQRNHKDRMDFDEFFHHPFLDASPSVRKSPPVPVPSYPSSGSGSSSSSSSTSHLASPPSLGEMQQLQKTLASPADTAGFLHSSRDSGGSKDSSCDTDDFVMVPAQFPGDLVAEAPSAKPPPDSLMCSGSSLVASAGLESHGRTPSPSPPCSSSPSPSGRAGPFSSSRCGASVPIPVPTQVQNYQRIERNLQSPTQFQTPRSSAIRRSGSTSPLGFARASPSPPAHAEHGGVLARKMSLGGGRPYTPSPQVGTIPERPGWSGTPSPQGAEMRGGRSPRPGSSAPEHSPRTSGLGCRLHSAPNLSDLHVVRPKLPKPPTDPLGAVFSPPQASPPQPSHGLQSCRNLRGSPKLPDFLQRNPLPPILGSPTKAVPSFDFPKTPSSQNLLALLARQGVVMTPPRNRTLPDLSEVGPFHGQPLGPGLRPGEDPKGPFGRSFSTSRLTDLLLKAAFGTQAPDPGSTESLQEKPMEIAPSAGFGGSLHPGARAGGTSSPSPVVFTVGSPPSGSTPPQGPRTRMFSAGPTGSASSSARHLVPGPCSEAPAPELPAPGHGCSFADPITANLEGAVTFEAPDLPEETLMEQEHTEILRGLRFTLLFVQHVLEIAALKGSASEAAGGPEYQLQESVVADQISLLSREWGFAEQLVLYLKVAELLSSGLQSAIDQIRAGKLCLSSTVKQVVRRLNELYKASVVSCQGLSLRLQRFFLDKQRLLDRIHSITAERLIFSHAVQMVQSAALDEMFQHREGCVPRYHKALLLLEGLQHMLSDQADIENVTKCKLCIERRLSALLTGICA
Procedure, shortened: as §1

[7] = target: T7, kinases of the scanMAX Kinase assay panel (Homo sapiens, UniProt P17948); details: FLT1; 1 uM
T7 construct: purchased DiscoverX Co. (contract measurement) scanMAX Kinase assay panel
T7 sequence (P17948 27-1338): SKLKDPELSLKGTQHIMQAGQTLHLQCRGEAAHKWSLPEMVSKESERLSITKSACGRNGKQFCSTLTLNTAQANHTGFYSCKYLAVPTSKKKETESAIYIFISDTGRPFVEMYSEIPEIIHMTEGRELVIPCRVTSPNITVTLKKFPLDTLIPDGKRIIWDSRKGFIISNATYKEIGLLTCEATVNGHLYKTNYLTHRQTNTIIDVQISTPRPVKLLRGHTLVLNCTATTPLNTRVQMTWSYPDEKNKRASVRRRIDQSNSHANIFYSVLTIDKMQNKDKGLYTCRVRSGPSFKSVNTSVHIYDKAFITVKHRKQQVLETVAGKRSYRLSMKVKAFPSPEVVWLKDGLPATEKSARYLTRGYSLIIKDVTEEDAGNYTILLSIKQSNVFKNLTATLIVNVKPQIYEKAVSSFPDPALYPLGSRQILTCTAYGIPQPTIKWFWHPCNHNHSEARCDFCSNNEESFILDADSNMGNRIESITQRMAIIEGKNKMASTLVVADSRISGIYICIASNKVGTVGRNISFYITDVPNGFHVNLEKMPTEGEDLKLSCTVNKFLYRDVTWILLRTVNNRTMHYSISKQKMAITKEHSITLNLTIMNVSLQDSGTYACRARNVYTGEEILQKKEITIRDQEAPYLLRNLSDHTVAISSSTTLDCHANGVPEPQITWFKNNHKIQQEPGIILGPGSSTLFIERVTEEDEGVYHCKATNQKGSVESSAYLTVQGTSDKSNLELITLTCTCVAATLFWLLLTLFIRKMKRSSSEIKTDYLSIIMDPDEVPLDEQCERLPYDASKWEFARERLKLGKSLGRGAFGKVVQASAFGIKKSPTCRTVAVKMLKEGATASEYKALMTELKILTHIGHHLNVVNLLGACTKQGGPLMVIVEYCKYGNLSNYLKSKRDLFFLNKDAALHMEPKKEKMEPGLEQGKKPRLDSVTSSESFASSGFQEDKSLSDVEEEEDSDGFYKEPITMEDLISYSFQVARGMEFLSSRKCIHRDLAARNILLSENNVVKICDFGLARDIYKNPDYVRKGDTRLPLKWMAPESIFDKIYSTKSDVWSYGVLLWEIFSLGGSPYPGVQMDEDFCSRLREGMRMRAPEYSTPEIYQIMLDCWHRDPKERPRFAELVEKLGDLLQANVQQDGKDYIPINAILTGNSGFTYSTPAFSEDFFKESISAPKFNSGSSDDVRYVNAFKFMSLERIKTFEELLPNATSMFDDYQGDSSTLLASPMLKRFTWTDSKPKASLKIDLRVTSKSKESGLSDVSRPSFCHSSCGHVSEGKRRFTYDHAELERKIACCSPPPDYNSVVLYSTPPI
Procedure, shortened: as §1

SMILES | remaining binding at 1 µM [1] [%] | remaining binding at 1 µM ([2]; ABL1(T315I)-nonphosphorylated) [%] | remaining binding at 1 µM ([2]; ABL1(T315I)-phosphorylated) [%] | remaining binding at 1 µM [3] [%] | remaining binding at 1 µM [4] [%] | remaining binding at 1 µM [5] [%] | remaining binding at 1 µM [6] [%] | remaining binding at 1 µM [7] [%]
CC1(Nc2nc(Nc3cnn([C@H]4CCN(C5COC5)C[C@@H]4F)c3Cl)nc3[nH]cc(C#N)c23)CC1 [Example 52, 2-((5-chloro-1-((3S,4S)-3-fluoro-1-(oxetane-3-yl)piperidine-4-yl)-1H-pyrazole-4-yl)amino)((1-methylcyclopropyl)amino)-7H-pyrrolo[2,3-d]pyrimidine-5-carbonitrile] | 11 | 0 | 0.05 | 8.1 | 97 | 0.5 | 20 | 6.2
CNc1nc(Nc2ccc(C(=O)N3CCOCC3)cc2OC)nc2[nH]cc(C#N)c12 [Example 1, 2-((2-methoxy-4-(morpholine-4-carbonyl)phenyl)amino)-4-(methylamino)-7H-pyrrolo[2,3-d]pyrimidine-5-carbonitrile] | 61 | 83 | 59 | 77 | 82 | 81 | 75 | 99
CCNc1nc(Nc2ccc(C(=O)N3CCC(N4CCOCC4)CC3)cc2OC)nc2[nH]cc(C(F)(F)F)c12 [Example 104, (4-((4-(ethylamino)-5-(trifluoromethyl)-7H-pyrrolo[2,3-d]pyrimidine-2-yl)amino)-3-methoxyphenyl)(4-morpholinopiperidine-1-yl)methanone] | 87 | 100 | 98 | 100 | 100 | 66 | 100 | 100
